≈ marks a conversion by molar mass, not a printed value.
Tests used:
Test in all cases: in vitro antibacterial evaluation, MIC by broth dilution
Assay type in all cases: cell-based
[1] = test system: Staphylococcus sp.; details: broth dilution, 18 hours at 35° C.
Summary of the method: (§1)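 Broth dilution per NCCLS M7-A2 in Mueller-Hinton II medium, inoculum 5×10^5 CFU/mL, antibiotic range 64-0.06 μg/mL. MIC taken as lowest concentration inhibiting growth; Gram-positive panel includes recent clinical isolates resistant to methicillin, penicillin and/or vancomycin.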

[2] = test system: Streptococcus sp.; details: broth dilution, 18 hours at 35° C.
Summary of the method: as §1

[3] = test system: Escherichia coli; details: 18 hours at 35° C.
Summary of the method: as §1

[4] = test system: Enterococcus sp.; details: broth dilution, 18 hours at 35° C.
Summary of the method: as §1

## CC(c1ccccc1)C1NC(=O)CNC(=O)C(CO)NC(=O)C(C(O)C2CNC(=N)N2C2OC(CO)C(O)C(O)C2O)NC(=O)C(C(O)C2CNC(=N)N2)NC(=O)C(Cc2ccc(OC3OC(CO)C(OC4OC(CO)C(O)C5OC(c6ccccc6)OC45)C(O)C3O)cc2)NC1=O (single isomer, unassigned) [Example 104a, Cyclo[glycyl-β-methylphenylalanyl-O-[4-O-(2,3-O-benzylidenehexopyranosyl)hexopyranosyl]-tyrosyl-3-(2-iminoimidazolidin-4-yl)seryl-3-(3-hexopyranosyl-2-iminoimidazolidin-4-yl)-serylseryl]]
[1]
  MIC Coagulase Negative Staphylococcus (GC 4547): 32 µg/mL (≈ 23.1 µM)
  MIC Coagulase Negative Staphylococcus (GC 4548): 16 to 32 µg/mL
  MIC Coagulase Negative Staphylococcus (GC 4549): 16 to 32 µg/mL
  MIC Coagulase Negative Staphylococcus (GC 4551): 32 µg/mL (≈ 23.1 µM)
  MIC Coagulase Negative Staphylococcus (GC 6257): 16 µg/mL (≈ 11.6 µM)
  MIC Staphylococcus aureus (ATCC 29213): 0.5 to 64 µg/mL
  MIC Staphylococcus aureus (GC 1131): 0.5 to 64 µg/mL
  MIC Staphylococcus aureus (GC 3051): 0.5 µg/mL (≈ 0.361 µM)
  MIC Staphylococcus aureus (GC 3053): 0.5 µg/mL (≈ 0.361 µM)
  MIC Staphylococcus aureus (GC 4541): 0.5 to 32 µg/mL
  MIC Staphylococcus aureus (GC 4542): 0.5 µg/mL (≈ 0.361 µM)
  MIC Staphylococcus aureus (GC 4544): 0.5 µg/mL (≈ 0.361 µM)
  MIC Staphylococcus aureus (GC 4545): 0.5 µg/mL (≈ 0.361 µM)
  MIC Staphylococcus aureus-SMITH (GC 4543): 0.5 to 64 µg/mL
  MIC Staphylococcus haemolyticus (GC 4546): 32 µg/mL (≈ 23.1 µM)
[1]; strain GC 4546
  MIC Staphylococcus haemolyticus (GC 4546): 32 µg/mL (≈ 23.1 µM)
[1]; strain GC 4547
  MIC Coagulase Negative Staphylococcus (GC 4547): 32 µg/mL (≈ 23.1 µM)
[1]; strain GC 4548
  MIC Coagulase Negative Staphylococcus (GC 4548): 16 to 32 µg/mL
[1]; strain GC 4549
  MIC Coagulase Negative Staphylococcus (GC 4549): 16 to 32 µg/mL
[1]; strain GC 4551
  MIC Coagulase Negative Staphylococcus (GC 4551): 32 µg/mL (≈ 23.1 µM)
[1]; strain GC 6257
  MIC Coagulase Negative Staphylococcus (GC 6257): 16 µg/mL (≈ 11.6 µM)
[1]; strain SMITH GC 4543
  MIC Staphylococcus aureus-SMITH (GC 4543): 0.5 to 64 µg/mL
[1]; strain ATCC 29213
  MIC Staphylococcus aureus (ATCC 29213): 0.5 to 64 µg/mL
[1]; strain GC 1131
  MIC Staphylococcus aureus (GC 1131): 0.5 to 64 µg/mL
[1]; strain GC 3051
  MIC Staphylococcus aureus (GC 3051): 0.5 µg/mL (≈ 0.361 µM)
[1]; strain GC 3053
  MIC Staphylococcus aureus (GC 3053): 0.5 µg/mL (≈ 0.361 µM)
[1]; strain GC 4541
  MIC Staphylococcus aureus (GC 4541): 0.5 to 32 µg/mL
[1]; strain GC 4542
  MIC Staphylococcus aureus (GC 4542): 0.5 µg/mL (≈ 0.361 µM)
[1]; strain GC 4544
  MIC Staphylococcus aureus (GC 4544): 0.5 µg/mL (≈ 0.361 µM)
[1]; strain GC 4545
  MIC Staphylococcus aureus (GC 4545): 0.5 µg/mL (≈ 0.361 µM)
[2]; Streptococcus agalactiae (GC 4564)
  MIC Streptococcus agalactiae (GC 4564): 0.5 µg/mL (≈ 0.361 µM)
[2]; Streptococcus pneumoniae (ATCC 6301)
  MIC Streptococcus pneumoniae (ATCC 6301): 0.12 to 16 µg/mL
[2]; Streptococcus pneumoniae (GC 1894)
  MIC Streptococcus pneumoniae (GC 1894): 0.12 to 8 µg/mL
[2]; Streptococcus pneumoniae (GC 4565)
  MIC Streptococcus pneumoniae (GC 4565): 0.12 µg/mL (≈ 0.0867 µM)
[2]; Streptococcus pyogenes (GC 4563)
  MIC Streptococcus pyogenes (GC 4563): 0.12 µg/mL (≈ 0.0867 µM)
[2]; strain ATCC 6301
  MIC Streptococcus pneumoniae (ATCC 6301): 0.12 to 16 µg/mL
[2]; strain GC 1894
  MIC Streptococcus pneumoniae (GC 1894): 0.12 to 8 µg/mL
[2]; strain GC 4563
  MIC Streptococcus pyogenes (GC 4563): 0.12 µg/mL (≈ 0.0867 µM)
[2]; strain GC 4564
  MIC Streptococcus agalactiae (GC 4564): 0.5 µg/mL (≈ 0.361 µM)
[2]; strain GC 4565
  MIC Streptococcus pneumoniae (GC 4565): 0.12 µg/mL (≈ 0.0867 µM)
[3]; strain ATCC 25922
  MIC Escherichia coli (ATCC 25922): >64 µg/mL
[3]; strain GC 4559
  MIC Escherichia coli (GC 4559): >64 µg/mL
[3]; strain GC 4560
  MIC Escherichia coli (GC 4560): 0.5 to 16 µg/mL
[4]; Enterococcus avium (GC 4558)
  MIC Enterococcus avium (GC 4558): >64 µg/mL
[4]; Enterococcus faecalis (ATCC 29212)
  MIC Enterococcus faecalis (ATCC 29212): >64 µg/mL
[4]; Enterococcus faecalis (GC 2242)
  MIC Enterococcus faecalis (GC 2242): >64 µg/mL
[4]; Enterococcus faecalis (GC 2691)
  MIC Enterococcus faecalis (GC 2691): >0.5 µg/mL
[4]; Enterococcus faecalis (GC 3059)
  MIC Enterococcus faecalis (GC 3059): >0.5 µg/mL
[4]; Enterococcus faecalis (GC 4552)
  MIC Enterococcus faecalis (GC 4552): >0.5 µg/mL
[4]; Enterococcus faecalis (GC 4553)
  MIC Enterococcus faecalis (GC 4553): >0.5 µg/mL
[4]; Enterococcus faecalis (GC 4554)
  MIC Enterococcus faecalis (GC 4554): >0.5 µg/mL
[4]; Enterococcus faecalis (GC 6189)
  MIC Enterococcus faecalis (GC 6189): >64 µg/mL
[4]; Enterococcus faecium (GC 2243)
  MIC Enterococcus faecium (GC 2243): >64 µg/mL
[4]; Enterococcus faecium (GC 4556)
  MIC Enterococcus faecium (GC 4556): >64 µg/mL
[4]; Enterococcus faecium (GC 4557)
  MIC Enterococcus faecium (GC 4557): 0.5 µg/mL (≈ 0.361 µM)
[4]; strain ATCC 29212
  MIC Enterococcus faecalis (ATCC 29212): >64 µg/mL
[4]; strain GC 2242
  MIC Enterococcus faecalis (GC 2242): >64 µg/mL
[4]; strain GC 2243
  MIC Enterococcus faecium (GC 2243): >64 µg/mL
[4]; strain GC 2691
  MIC Enterococcus faecalis (GC 2691): >0.5 µg/mL
[4]; strain GC 3059
  MIC Enterococcus faecalis (GC 3059): >0.5 µg/mL
[4]; strain GC 4552
  MIC Enterococcus faecalis (GC 4552): >0.5 µg/mL
[4]; strain GC 4553
  MIC Enterococcus faecalis (GC 4553): >0.5 µg/mL
[4]; strain GC 4554
  MIC Enterococcus faecalis (GC 4554): >0.5 µg/mL
[4]; strain GC 4556
  MIC Enterococcus faecium (GC 4556): >64 µg/mL
[4]; strain GC 4557
  MIC Enterococcus faecium (GC 4557): 0.5 µg/mL (≈ 0.361 µM)
[4]; strain GC 4558
  MIC Enterococcus avium (GC 4558): >64 µg/mL
[4]; strain GC 6189
  MIC Enterococcus faecalis (GC 6189): >64 µg/mL

From patent publication US6914045B2, “Glycopeptide antibiotics” (Wyeth Holdings Corporation, priority 2001, dated 2005)
